US20110112124A1, “FUNGICIDAL COMPOSITIONS” (SYNGENTA CROP PROTECTION, INC., priority 2008, published 2011)
Like-named read-outs stand apart in the source and are kept apart here.

Columns and labels:
[1] = test system: Botryotinia fuckeliana (Botrytis cinerea); assay: Example B1: liquid culture test, gray mould; type: cell-based
Pythium ultimum = assay: Example B2: liquid culture test, seedling damping off; type: cell-based
Sclerotinia sclerotiorum [2] = assay: Example B3: liquid culture test, cottony rot; type: cell-based
[3] = test system: Mycosphaerella arachidis (Cercospora arachidicola); assay: Example B4: liquid culture test, early leaf spot; type: cell-based
[4] = test system: Tapesia yallundae W-type (Pseudocercosporella herpotrichoides); assay: Example B5: liquid culture test, eyespot; type: cell-based
[5] = test system: Mycosphaerella graminicola (Septoria tritici); assay: Example B6: liquid culture test, Septoria blotch; type: cell-based
[6] = test system: Tapesia yallundae W-type (Pseudocercosporella herpotrichoides); assay: Example B7: liquid culture test, eyespot; type: cell-based
Sclerotinia sclerotiorum [7] = assay: Example B8: liquid culture test, cottony rot; type: cell-based
[8] = test system: Mycosphaerella graminicola (Septoria tritici); assay: Example B9: liquid culture test, Septoria blotch; type: cell-based
[9] = test system: Tapesia yallundae W-type (Pseudocercosporella herpotrichoides); assay: Example B10: liquid culture test, eyespot; type: cell-based
[10] = test system: Botryotinia fuckeliana (Botrytis cinerea); assay: Example B11: liquid culture test, gray mould; type: cell-based
Fusarium culmorum = type: cell-based
[11] = test system: Mycosphaerella graminicola (Septoria tritici); assay: Example B13: liquid culture test, Septoria blotch; type: cell-based
[12] = test system: Tapesia yallundae W-type (Pseudocercosporella herpotrichoides); assay: Example B14: liquid culture test, eyespot; type: cell-based
[13] = test system: Thanatephorus cucumeris (Rhizoctonia solani); assay: Example B15: liquid culture test, foot rot, damping-off; type: cell-based
[14] = test system: Botryotinia fuckeliana (Botrytis cinerea); assay: Example B16: liquid culture test, gray mould; type: cell-based
[15] = test system: Mycosphaerella graminicola (Septoria tritici); assay: Example B17: liquid culture test, Septoria blotch; type: cell-based
Plasmopara viticola = assay: Example B18: grape leaf disc preventative test
Method: Leaf disks or leaf segments of various plant species were cut from plants grown in the greenhouse. The cut leaf disks or segments were placed in multiwell plates (24-well format) onto water agar. The leaf disks were sprayed with a test solution before (preventative) or after (curative) inoculation. Compounds to be tested were prepared as DMSO solutions (max. 10 mg/ml) which were diluted to the appropriate concentration with 0.025% Tween20 just before spraying. The inoculated leaf disks or segments were incubated under defined conditions (temperature, relative humidity, light, etc.) according to the respective test system. A single evaluation of disease level was carried out 3-9 days after inoculation, depending on the pathosystem. Percent disease control relative to the untreated check leaf disks or segments was then calculated.
The leaf disks were inoculated with a spore suspension of the fungus 1 day after application. The inoculated leaf disks were incubated at 19° C. and 80% rh under a light regime of 12 h light/12 h darkness in a climate cabinet and the activity of a compound was assessed as percent disease control compared to untreated when an appropriate level of disease damage appears in untreated check leaf disks (6-8 days after application).

For COC(c1ccc(Cl)cc1Cl)C(C)NC(=O)c1cn(C)nc1C(F)F (racemic) [Comp. 1.001, 3-difluoromethyl-1-methyl-1H-pyrazole-4-carboxylic acid [2-(2,4-dichlorophenyl)-2-methoxy-1-methyl-ethyl]-amide], the “% action” value ([1]; 0.063 ppm) was 20%, the “% action” value ([1]; 0.125 ppm) was 20% and the “% action” value ([1]; 0.250 ppm) was 50%. The “% action” value ([1]; 0.500 ppm) was 50%, the “% action” value ([1]; 1.000 ppm) was 70% and the “% action” value (Pythium ultimum; 2.500 ppm) was 0%. The “% action” value (Pythium ultimum; 5.000 ppm) was 0%, the “% action” value (Pythium ultimum; 10.000 ppm) was 0% and the “% action” value (Pythium ultimum; 20.000 ppm) was 0%. The “% action” value (Sclerotinia sclerotiorum [2]; 0.313 ppm) was 20%, the “% action” value (Sclerotinia sclerotiorum [2]; 0.625 ppm) was 50% and the “% action” value (Sclerotinia sclerotiorum [2]; 1.250 ppm) was 70%. The “% action” value ([3]; 0.039 ppm) was 0%, the “% action” value ([3]; 0.078 ppm) was 20% and the “% action” value ([4]; 0.156 ppm) was 0%. The “% action” value ([4]; 0.313 ppm) was 20%, the “% action” value ([4]; 0.625 ppm) was 50% and the “% action” value ([4]; 1.250 ppm) was 70%. For the same molecule, the “% action” value ([5]; 0.156 ppm) was 70%, the “% action” value ([5]; 0.313 ppm) was 90% and the “% action” value ([6]; 0.039 ppm) was 0%. For the same molecule, the “% action” value ([6]; 0.078 ppm) was 0%, the “% action” value ([6]; 0.156 ppm) was 20% and the “% action” value ([6]; 0.313 ppm) was 20%. The “% action” value ([6]; 0.625 ppm) was 50%, the “% action” value ([6]; 1.250 ppm) was 70% and the “% action” value (Sclerotinia sclerotiorum [7]; 0.078 ppm) was 0%. The “% action” value (Sclerotinia sclerotiorum [7]; 0.156 ppm) was 0%, the “% action” value (Sclerotinia sclerotiorum [7]; 0.313 ppm) was 20% and the “% action” value (Sclerotinia sclerotiorum [7]; 0.625 ppm) was 50%. The “% action” value (Sclerotinia sclerotiorum [7]; 1.250 ppm) was 70%, the “% action” value ([8]; 0.078 ppm) was 20% and the “% action” value ([8]; 0.156 ppm) was 70%. For the same molecule, the “% action” value ([9]; 0.078 ppm) was 0%, the “% action” value ([9]; 0.156 ppm) was 0% and the “% action” value ([9]; 0.313 ppm) was 20%. For the same molecule, the “% action” value ([9]; 0.625 ppm) was 20%, the “% action” value ([9]; 1.250 ppm) was 50% and the “% action” value ([10]; 0.031 ppm) was 0%. The “% action” value ([10]; 0.063 ppm) was 0%, the “% action” value ([10]; 0.125 ppm) was 20% and the “% action” value ([10]; 0.250 ppm) was 20%. The “% action” value ([10]; 0.500 ppm) was 50%, the “% action” value (Fusarium culmorum; 0.063 ppm) was 0% and the “% action” value (Fusarium culmorum; 0.125 ppm) was 0%. The “% action” value (Fusarium culmorum; 0.250 ppm) was 0%, the “% action” value (Fusarium culmorum; 0.500 ppm) was 0% and the “% action” value (Fusarium culmorum; 1.000 ppm) was 0%. The “% action” value (Fusarium culmorum; 2.000 ppm) was 20%, the “% action” value ([11]; 0.078 ppm) was 20% and the “% action” value ([11]; 0.156 ppm) was 70%. The “% action” value ([12]; 0.156 ppm) was 20%, the “% action” value ([12]; 0.313 ppm) was 20% and the “% action” value ([12]; 0.625 ppm) was 50%. The “% action” value ([12]; 1.250 ppm) was 70%, the “% action” value ([13]; 0.250 ppm) was 0% and the “% action” value ([13]; 0.500 ppm) was 0%. For the same molecule, the “% action” value ([13]; 1.000 ppm) was 0%, the “% action” value ([13]; 2.000 ppm) was 0% and the “% action” value ([14]; 0.016 ppm) was 0%. The “% action” value ([14]; 0.031 ppm) was 0%, the “% action” value ([14]; 0.063 ppm) was 20% and the “% action” value ([14]; 0.125 ppm) was 20%. The “% action” value ([15]; 0.016 ppm) was 0%, the “% action” value ([15]; 0.031 ppm) was 0% and the “% action” value ([15]; 0.063 ppm) was 20%. For the same molecule, the “% action” value ([15]; 0.125 ppm) was 50%, the “% action” value (Plasmopara viticola; 0.625 ppm) was 0% and the “% action” value (Plasmopara viticola; 1.250 ppm) was 0%. For the same molecule, the “% action” value (Plasmopara viticola; 2.500 ppm) was 0%, the “% action” value (Plasmopara viticola; 5.000 ppm) was 7% and the “% action” value (Plasmopara viticola; 10.000 ppm) was 0%.
With CO/C=C(/C(=O)OC)c1ccccc1Oc1cc(Oc2ccccc2C#N)ncn1 [Azoxystrobin, azoxystrobin] the “% action” value ([1]; 0.063 ppm) was 0%, the “% action” value ([1]; 0.125 ppm) was 20% and the “% action” value ([1]; 0.250 ppm) was 20%. For the same molecule, the “% action” value ([1]; 0.500 ppm) was 50%, the “% action” value ([1]; 1.000 ppm) was 50% and the “% action” value ([1]; 2.000 ppm) was 50%. For the same molecule, the “% action” value (Pythium ultimum; 10.000 ppm) was 50%, the “% action” value (Pythium ultimum; 20.000 ppm) was 70% and the “% action” value (Sclerotinia sclerotiorum [2]; 0.625 ppm) was 0%. The “% action” value (Sclerotinia sclerotiorum [2]; 1.250 ppm) was 20%, the “% action” value (Sclerotinia sclerotiorum [2]; 2.500 ppm) was 20% and the “% action” value (Sclerotinia sclerotiorum [2]; 5.000 ppm) was 50%. The “% action” value ([3]; 0.039 ppm) was 20%, the “% action” value ([3]; 0.078 ppm) was 50% and the “% action” value ([3]; 0.156 ppm) was 70%. For the same molecule, the “% action” value ([4]; 0.078 ppm) was 0%, the “% action” value ([4]; 0.156 ppm) was 0% and the “% action” value ([4]; 0.313 ppm) was 20%. For the same molecule, the “% action” value ([4]; 0.625 ppm) was 20%, the “% action” value ([4]; 1.250 ppm) was 20% and the “% action” value ([4]; 2.500 ppm) was 20%. For the same molecule, the “% action” value ([4]; 5.000 ppm) was 20%.
In the case of N#Cc1c(Cl)c(Cl)c(Cl)c(C#N)c1Cl [Chlorothalonil, chlorothalonil, reference compound], the “% action” value (Sclerotinia sclerotiorum [7]; 0.156 ppm) is reported as 0%, the “% action” value (Sclerotinia sclerotiorum [7]; 0.313 ppm) is reported as 20% and the “% action” value (Sclerotinia sclerotiorum [7]; 0.625 ppm) is reported as 90%. For the same molecule, the “% action” value ([8]; 0.078 ppm) was 20%, the “% action” value ([8]; 0.156 ppm) was 50% and the “% action” value ([9]; 0.156 ppm) was 20%. For the same molecule, the “% action” value ([9]; 0.313 ppm) was 20%.
In the case of Cc1cc(C2CC2)nc(Nc2ccccc2)n1 [Cyprodinil, cyprodinil], the “% action” value ([5]; 0.156 ppm) is reported as 0%, the “% action” value ([5]; 0.313 ppm) is reported as 0% and the “% action” value ([5]; 0.625 ppm) is reported as 0%. The “% action” value ([5]; 1.250 ppm) was 0%, the “% action” value ([6]; 0.039 ppm) was 0% and the “% action” value ([6]; 0.078 ppm) was 0%. For the same molecule, the “% action” value ([6]; 0.156 ppm) was 0%, the “% action” value ([6]; 0.313 ppm) was 0% and the “% action” value ([6]; 0.625 ppm) was 0%. The “% action” value ([6]; 1.250 ppm) was 0%, the “% action” value ([6]; 2.500 ppm) was 0% and the “% action” value ([6]; 5.000 ppm) was 0%.
N#Cc1c[nH]cc1-c1cccc2c1OC(F)(F)O2 [Fludioxonil, fludioxonil, reference compound] was tested, and the “% action” value ([10]; 0.063 ppm) was 20%, the “% action” value ([10]; 0.125 ppm) was 70% and the “% action” value (Fusarium culmorum; 0.250 ppm) was 20%. The “% action” value (Fusarium culmorum; 0.500 ppm) was 70%.
In the case of C#CCOc1ccc(CCNC(=O)C(OCC#C)c2ccc(Cl)cc2)cc1OC (stereo not drawn) [Mandipropamid, mandipropamid, reference compound], the “% action” value (Plasmopara viticola; 0.625 ppm) is reported as 30%, the “% action” value (Plasmopara viticola; 1.250 ppm) is reported as 37% and the “% action” value (Plasmopara viticola; 2.500 ppm) is reported as 67%.
In the case of CCCC(Cn1cncn1)c1ccc(Cl)cc1Cl (stereo not drawn) [Penconazole, penconazole], the “% action” value ([11]; 0.078 ppm) is reported as 0%, the “% action” value ([11]; 0.156 ppm) is reported as 0% and the “% action” value ([11]; 0.313 ppm) is reported as 0%. The “% action” value ([11]; 0.625 ppm) was 20%.
In the case of CC(C)(C)C(O)(CCc1ccc(Cl)cc1)Cn1cncn1 (stereo not drawn) [Tebuconazol, tebuconazole, reference compound], the “% action” value ([12]; 0.625 ppm) is reported as 20%.
In the case of CC(C)C1C2CCC1c1c(NC(=O)c3cn(C)nc3C(F)F)cccc12 (stereo not drawn) [isopyrazam, reference compound], the “% action” value ([13]; 0.125 ppm) is reported as 50%, the “% action” value ([13]; 0.250 ppm) is reported as 70% and the “% action” value ([13]; 0.500 ppm) is reported as 70%. For the same molecule, the “% action” value ([13]; 1.000 ppm) was 70%, the “% action” value ([13]; 2.000 ppm) was 70% and the “% action” value ([14]; 0.031 ppm) was 20%. The “% action” value ([14]; 0.063 ppm) was 20%, the “% action” value ([15]; 0.031 ppm) was 0% and the “% action” value ([15]; 0.063 ppm) was 20%. For the same molecule, the “% action” value ([15]; 0.125 ppm) was 70%.
